In paper PMC9413514, “Accessing Lipophilicity and Biomimetic Chromatography Profile of Biologically Active Ingredients of Botanicals Used in the Treatment of Inflammatory Bowel Disease” (Pharmaceuticals, 2022):

Experiments:
Format in all cases: physicochemical
[1] = Miniaturized shake-flask method (n-octanol/PBS pH 7.4) with HPLC analysis; conditions: for Δ log D7.4 (lower than curcumin): compared to curcumin; for logD at 1 h: n-octanol/PBS 20 mM pH 7.4, 25 °C, spread is RSD in %, read-out: log D7.4 ± RSD (%) (n = 3)
Description: Stock solution of biologically active ingredients of botanicals used in IBD treatment were prepared using dimethylsulfoxide in concentration of 2 mg/mL. Working solutions were prepared daily by dilution of the stock solutions with PBS (20 mM, pH 7.4) pre-saturated with n-octanol. Before the injection into the HPLC system all solutions were sonicated for 15 min at room temperature in Elmasonic XtraTT (Elma Schmidbauer, Singen, Germany) and filtered through 0.2 μm polyethersulfone filters (Obrnuta faza, Pazin, Croatia).
The pre-saturated solutions of n-octanol and PBS (20 mM, pH 7.4) were used for determination of logarithm of distribution coefficient (log D7.4). The n-octanol and aqueous phase (mixture 1:1, v/v) were mutually saturated for 24 h in an orbital shaker-incubator ES-20/60 (Biosan, Riga, Latvia) at 100 oscillations per min at 25.0 ± 0.1 °C. The prepared mixture was left resting for at least 12 h in the thermostat at 25.0 ± 0.1 °C to ensure complete separation of the two phases. Until analysis, separated saturated solutions were kept in refrigerator at 4 °C.
Shake-flask procedure was conducted in amber 2 mL HPLC vials. 300 μL of the working solution was added to 1500 μL of n-octanol pre-saturated with PBS. To prevent material loss due to volatilisation, the two-phase system nearly filled the entire volume of the test vessels. All n-octanol–buffer mixtures were first vortexed for 1 min and then shaken for 1 h (150 oscillations per min) at room temperature (25.0 ± 0.1 °C) to reach equilibrium and phase distribution. Afterward, the samples were centrifuged using a Z 326 K tabletop centrifuge (HERMLE Labortechnik, Wehingen, Germany) for 30 min at 4000× g and 25 °C to ensure that possible emulsions were removed.
After equilibration and phase separation, the aqueous phase of all samples was analysed on an Agilent HPLC 1100 (Agilent Technologies, Waldbronn, Germany) with diode array detection. Analysis was conducted with a Zorbax SB C18 column (length 150 mm, i.d. 4.6 mm, particle size 5 μm) by Agilent Technologies. 10 min chromatographic runs were performed at 25.0 ± 0.1 °C in isocratic mode using a methanol/water mixture (60/40, v/v) with addition of 0.1% of formic acid as mobile phase modifier at a flow rate of 1.0 mL/min. The mobile phase was filtered through a membrane filter, no. 66, diameter 47 mm, pore size 0.45 µm (Supelco, Bellefonte, PA, USA). The vials were placed in the rack on the autosampler at 25 °C. The injection volume was 10 µL, with a needle offset of 0.5 mm. To avoid any carryover of the analyte-containing n-octanol phase, the outside of the syringe was subsequently washed in methanol before injection. The absorbance of the analytes during a chromatographic run was collected in the spectral range 200–400 nm, and the detection wavelength for each analyte was the one providing the maximum peak height.

[2] = C18-TLC assay (hydrophobicity); conditions: for RM0 (TLC hydrophobicity index, intercept of linear equation): RP-18 TLC, PBS pH 7.4/methanol, extrapolated to zero organic modifier
Excerpt: In TLC measurements RF value depends on the chemical structure of analyte and its interaction with stationary and mobile phase. […] As it was expected, with increase in the percentage of organic modifier in the mobile phase the increase in RF values can be seen with accompanied decrease in RM values expressed as RM = log(1/RF - 1). Measured RF values were in the range from 0.1 to 0.7 obtained in a wide range of mobile phase organic modifier concentrations. […] Increasing concentration of the organic modifier in the mobile phase caused a slower decrease in the RM values for less hydrophobic analytes than for more hydrophobic ones. […] Increase in the hydrophobicity within curcuminoids and andrographolides is related to increase in lipophilicity determined by shake-flask method (Table 3). Stock solutions of analytes and calibration standards were prepared by dissolving 10 mg of each solute in 10 mL of methanol and kept at 4 °C. Working solutions were freshly prepared at the beginning of each day by dilution of the stock solutions to 100 μg/mL with methanol for TLC measurements or mobile phase for HPLC measurements. Before use, the samples were sonicated (Elmasonic […]) for 10 min at 25 °C and all working solutions were filtered through 0.2 μm polyethersulfone filters (Obrnuta faza). To protect analytes from photodegradation, the amber glass HPLC vials were used. Analyses were carried out using a commercially available 10 cm x 20 cm RP-18 TLC plates with fluorescent indicator (Merck KGaA). 5 μL of each working solution ([…]) was applied to the plates as 5 mm bends, 10 mm from the lower edge and 15 mm from sides of plates. The mobile phases were prepared by mixing the respective amounts of PBS (20 mM, pH 7.4) and methanol from 50% to 80% of organic solvent in 5% increment. The vertical flat-bottom chamber ([…], Switzerland) with a stainless-steel lid was saturated with mobile phase for 30 min. The plates were developed to a distance of 9 cm at room temperature, dried in the open air for 5 min and visualized under λ = 254 nm UV light (UV Cabinet with Dual Wavelength UV lamp by Camag).

[3] = C18-HPLC assay (hydrophobicity); conditions: for logk0 (HPLC hydrophobicity index, intercept of linear equation): Zorbax SB C18, PBS pH 7.4/methanol, extrapolated to zero organic modifier
Description: The principles of hydrophobicity determination by HPLC are characterized by the logarithm of retention factor (k), defined as logk = log (tR−t0)/t0, where tR is retention time of analyte and t0 is the dead time. […] The percentage of methanol in the mobile phase was optimized so that the analytes had retention time between dead time and a maximum of 20 min keeping the analysis time as short as possible, and the peak shape acceptable (peak asymmetry factor were between 0.8 and 1.2). […] The HPLC hydrophobicity index, logk0, was determined by extrapolation of the organic modifier in the mobile phase to its zero concentration.
Stock solutions of analytes and calibration standards were prepared by dissolving 10 mg of each solute in 10 mL of methanol and kept at 4 °C. Working solutions were freshly prepared at the beginning of each day by dilution of the stock solutions to 100 μg/mL with methanol for TLC measurements or mobile phase for HPLC measurements. Before use, the samples were sonicated (Elmasonic XtraTT, Elma Schmidbauer) for 10 min at 25 °C and all working solutions were filtered through 0.2 µm polyethersulfone filters (Obrnuta faza). To protect analytes from photodegradation, the amber glass HPLC vials were used.
C18-HPLC assay was carried out at Agilent HPLC 1100 and Zorbax SB C18 chromatographic column (length 250 mm.6 mm, particle size 5 µm) by Agilent Technologies, while IAM-HPLC assay was conducted using IAM P.C.DD2 chromatographic column (length 50 mm, i.d. 3.0 mm, particle size […]) by Regis Technologies (Morton Grove, IL, USA). Retention data were collected at 25.0 ± 0.1 °C using isocratic method working with mobile phases, mixing the respective amounts of PBS (10 mM, pH 7.4) and methanol from 35% to 80% of organic solvent in 5% increment. Each mobile phase was shaken vigorously and filtrated through membrane filter, no. 66, diameter 47 mm, pore size 0.45 µm by Supelco and degassed by sonication 5 min before use. The injection volume was set at 10 µL, and the measurements were carried out at flow rate 1.0 mL/min. Natrium nitrate solution (0.1 mg/mL in mobile phase) was used as the marker of dead-time. The absorbance of the analytes during a chromatographic run was collected in the spectral range of 200–400 nm, and the detection wavelength for each analyte was the one providing the maximum peak height.

Structure (SMILES)	Δ log D7.4 (lower than curcumin) [1]	logD at 1 h [1]	RM0 (TLC hydrophobicity index, intercept of linear equation) [2]	logk0 (HPLC hydrophobicity index, intercept of linear equation) [3]	Δ log D7.4 (increase compared to andrographolide) ([1]; compared to andrographolide)	difference in RM0 values versus andrographolide ([2]; compared to andrographolide)	difference in logk0 values versus andrographolide ([3]; compared to andrographolide)
O=C(C=Cc1ccc(O)cc1)CC(=O)C=Cc1ccc(O)cc1 [Bisdemetoxycurcumin, bisdemetoxycurcumin]	0.22 units	1.72	y = −0.0503 x + 4.1751	y = −0.0447 x + 3.4174			
O=C(/C=C/C=C/c1ccc2c(c1)OCO2)N1CCCCC1 [Piperine, piperine]		1.67	y = −0.0526 x + 4.4044	y = −0.0394 x + 3.4218			
C=C1CC[C@@H]2[C@](C)(CO)[C@H](O)CC[C@@]2(C)[C@@H]1C/C=C1/C(=O)OC[C@H]1O [Andrographolide, andrographolide]		1.32	y = −0.0302 x + 2.0908	y = −0.0271 x + 1.9065			
COc1cc(/C=C/C(=O)CC(=O)/C=C/c2ccc(O)cc2)ccc1O [Demetoxycurcumin, demetoxycurcumin]	0.42 units	1.52	y = −0.0504 x + 4.1781	y = −0.0448 x + 3.4349			
C=C1CC[C@@H]2[C@](C)(CO[C@@H]3O[C@H](CO)[C@@H](O)[C@H](O)[C@H]3O)CCC[C@@]2(C)[C@@H]1CCC1=CCOC1=O [Neoandrographolide, neoandrographolide]		1.51	y = −0.0334 x + 2.1672	y = −0.0359 x + 2.8595	0.19 units	0.08 units	0.95 units
